Laboratory results as given in the supplement of paper PMC11061612.

What was measured:
Assay in all cases: combination Emax (second highest fraction inhibited in the dose matrix, 72 h); higher = more inhibition; extreme values may be limits of the assay
BE2-M17 (Neuroblastoma) = test system: BE2-M17 (Neuroblastoma)
In short: (§1)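 After 24 hours at 37°C and 5% CO2 in 1536-well plates, cells in DMEM/F12 or RPMI plus 10% FBS received two-drug dose matrices for 72 hours. Viability came from CellTiter-Glo 2.0 luminescence and was scaled as inhibition, anchored at 0 by vehicle wells and at 1 by blank wells. Combination Emax is taken as the second-highest inhibition in the matrix, and Bliss excess as the observed combination effect less EA + EB − EA·EB, with EA and EB the single-agent effects.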

[1] = test system: OE21 (Esophageal Squamous Cell Carcinoma)
In short: as §1

[2] = test system: FTC-133 (Thyroid Gland Carcinoma)
In short: as §1

[3] = test system: NUGC-4 (Gastric Carcinoma)
In short: as §1

[4] = test system: HuH-7 (Hepatocellular Carcinoma)
In short: as §1

[5] = test system: NCI-H209 (Small Cell Lung Carcinoma)
In short: as §1

[6] = test system: HuCCT1 (Biliary Tract Carcinoma)
In short: as §1

[7] = test system: YAPC (Pancreatic Carcinoma)
In short: as §1

A673 (Ewing's Sarcoma) = test system: A673 (Ewing's Sarcoma)
In short: as §1

[8] = test system: BE-13 (T-Lymphoblastic Leukemia)
In short: as §1

[9] = test system: OVCAR-5 (Ovarian Carcinoma)
In short: as §1

LOXIMVI (Melanoma) = test system: LOXIMVI (Melanoma)
In short: as §1

[10] = test system: SW1710 (Bladder Carcinoma)
In short: as §1

EW-11 (Ewing's Sarcoma) = test system: EW-11 (Ewing's Sarcoma)
In short: as §1

GAMG (Glioblastoma) = test system: GAMG (Glioblastoma)
In short: as §1

[11] = test system: NCI-H524 (Small Cell Lung Carcinoma)
In short: as §1

[12] = test system: ESS-1 (Other Solid Carcinomas)
In short: as §1

CAL-72 (Osteosarcoma) = test system: CAL-72 (Osteosarcoma)
In short: as §1

[13] = test system: LNZTA3WT4 (Low Grade Glioma)
In short: as §1

[14] = test system: SAS (Oral Cavity Carcinoma)
In short: as §1

Structure (SMILES): CC(=O)c1c(C)c2cnc(Nc3ccc(N4CCNCC4)cn3)nc2n(C2CCCC2)c1=O [Palbociclib] + CN(CC[C@H](CSC1=CC=CC=C1)NC2=C(C=C(C=C2)S(=O)(=O)NC(=O)C3=CC=C(C=C3)N4CCC(CC4)[C@H](C5=CC=CC=C5C6=CC=C(C=C6)Cl)O)S(=O)(=O)C(F)(F)F)CCO [AZD4320] (first compound max 10 µM, 7x7, partner max 1 µM)
- combination Emax (BE2-M17 (Neuroblastoma)): 0.756
- combination Emax [1]: 0.663
- combination Emax [2]: 0.582
- combination Emax [3]: 0.411
- combination Emax [4]: 0.309
- combination Emax [5]: 1

Structure (SMILES): N#Cc1cnc(Nc2cc(NC[C@H]3CNCCO3)c(C(F)(F)F)cn2)cn1 [SRA737] + CCc1c2c(nc3ccc(O)cc13)-c1cc3c(c(=O)n1C2)COC(=O)[C@]3(O)CC [SN-38] (first compound max 10 µM, 7x7, partner max 0.3 µM)
- combination Emax [6]: 0.847
- combination Emax [7]: 0.696
- combination Emax (A673 (Ewing's Sarcoma)): 0.945
- combination Emax [8]: 0.99
- combination Emax [9]: 0.784
- combination Emax (LOXIMVI (Melanoma)): 0.859
- combination Emax [10]: 0.676
- combination Emax (EW-11 (Ewing's Sarcoma)): 0.682
- combination Emax (GAMG (Glioblastoma)): 0.878
- combination Emax [11]: 0.938
- combination Emax [12]: 1
- combination Emax (CAL-72 (Osteosarcoma)): 0.91
- combination Emax [13]: 0.84
- combination Emax [14]: 1

Structure (SMILES): N#Cc1cnc(Nc2cc(NC[C@H]3CNCCO3)c(C(F)(F)F)cn2)cn1 [SRA737] + C=CCn1c(=O)c2cnc(Nc3ccc(N4CCN(C)CC4)cc3)nc2n1-c1cccc(C(C)(C)O)n1 [AZD1775] (first compound max 10 µM, partner max 1 µM)
- combination Emax [6]: 0.812
- combination Emax [7]: 0.495
- combination Emax (A673 (Ewing's Sarcoma)): 0.635
- combination Emax [8]: 0.993
- combination Emax [9]: 0.762
- combination Emax (LOXIMVI (Melanoma)): 0.562
- combination Emax [10]: 0.644
- combination Emax (EW-11 (Ewing's Sarcoma)): 0.603
- combination Emax (GAMG (Glioblastoma)): 0.726
- combination Emax [11]: 0.912
- combination Emax [12]: 1
- combination Emax (CAL-72 (Osteosarcoma)): 0.88
- combination Emax [13]: 0.91
- combination Emax [14]: 0.824

Structure (SMILES): Cc1cc2ncnn2cc1Nc1ncc2c(n1)n(C1CCOCC1)c(=O)n2C [AZD7648] + COc1cc([C@@H]2c3cc4c(cc3[C@@H](O[C@@H]3O[C@@H]5CO[C@@H](C)O[C@H]5[C@H](O)[C@H]3O)[C@H]3COC(=O)[C@H]23)OCO4)cc(OC)c1O [Etoposide] (first compound max 10 µM, 7x7, partner max 10 µM)
- combination Emax [6]: 0.648
- combination Emax [7]: 0.531
- combination Emax (A673 (Ewing's Sarcoma)): 0.855
- combination Emax [8]: 0.976
- combination Emax [9]: 0.546
- combination Emax (LOXIMVI (Melanoma)): 0.699
- combination Emax [10]: 0.301
- combination Emax (EW-11 (Ewing's Sarcoma)): 0.682
- combination Emax (GAMG (Glioblastoma)): 0.872
- combination Emax [11]: 0.617
- combination Emax [12]: 1
- combination Emax (CAL-72 (Osteosarcoma)): 0.822
- combination Emax [13]: 0.794
- combination Emax [14]: 0.985

Structure (SMILES): N#Cc1cnc(Nc2cc(NC[C@H]3CNCCO3)c(C(F)(F)F)cn2)cn1 [SRA737] + Nc1ccn([C@@H]2O[C@H](CO)[C@@H](O)C2(F)F)c(=O)n1 [Gemcitabine] (first compound max 10 µM, 7x7, partner max 0.3 µM)
- combination Emax [6]: 0.792
- combination Emax [7]: 0.655
- combination Emax (A673 (Ewing's Sarcoma)): 0.946
- combination Emax [8]: 1
- combination Emax [9]: 0.685
- combination Emax (LOXIMVI (Melanoma)): 0.881
- combination Emax [10]: 0.676
- combination Emax (EW-11 (Ewing's Sarcoma)): 0.854
- combination Emax (GAMG (Glioblastoma)): 0.892
- combination Emax [11]: 1
- combination Emax [12]: 1
- combination Emax (CAL-72 (Osteosarcoma)): 0.72
- combination Emax [13]: 0.882
- combination Emax [14]: 0.956

Structure (SMILES): C[C@@H](c1ccc2nccn2c1)n1nnc2ncc(-c3cnn(C)c3)nc21 [Savolitinib] + CN(CC[C@H](CSC1=CC=CC=C1)NC2=C(C=C(C=C2)S(=O)(=O)NC(=O)C3=CC=C(C=C3)N4CCC(CC4)[C@H](C5=CC=CC=C5C6=CC=C(C=C6)Cl)O)S(=O)(=O)C(F)(F)F)CCO [AZD4320] (first compound max 1 µM, 7x7, partner max 1 µM)
- combination Emax (BE2-M17 (Neuroblastoma)): 0.305
- combination Emax [1]: 0.101
- combination Emax [2]: 0.546
- combination Emax [3]: 0.262
- combination Emax [4]: 0.265
- combination Emax [5]: 1

Structure (SMILES): CN(CCO)CC[C@H](CSc1ccccc1)Nc1ccc(S(=O)(=O)NC(=O)c2ccc(N3CCC([C@@H](O)c4ccccc4-c4ccc(Cl)cc4)CC3)cc2)cc1S(=O)(=O)C(F)(F)F [AZD4320] + CCN(CCO)CCCOc1ccc2c(Nc3cc(CC(=O)Nc4cccc(F)c4)[nH]n3)ncnc2c1 [AZD2811] (first compound max 1 µM, 7x7, partner max 1 µM)
- combination Emax [6]: 0.136
- combination Emax (BE2-M17 (Neuroblastoma)): 0.64
- combination Emax [7]: 0.0932
- combination Emax (A673 (Ewing's Sarcoma)): 1
- combination Emax [8]: 1
- combination Emax [1]: 0.111
- combination Emax [2]: 0.681
- combination Emax [3]: 0.215
- combination Emax (LOXIMVI (Melanoma)): 0.443
- combination Emax [10]: 0.154
- combination Emax [4]: 0.219
- combination Emax (EW-11 (Ewing's Sarcoma)): 0.865
- combination Emax (GAMG (Glioblastoma)): 0.845
- combination Emax [11]: 0.995
- combination Emax [12]: 0.923
- combination Emax (CAL-72 (Osteosarcoma)): 0.373
- combination Emax [13]: 0.122
- combination Emax [5]: 1
- combination Emax [14]: 0.105

Structure (SMILES): COc1nnc2ccc(N3CCC(c4ccc(OCCN5CCN(C)C(=O)[C@H]5C)cc4)CC3)nn12 [AZD5153] + CN(CC[C@H](CSC1=CC=CC=C1)NC2=C(C=C(C=C2)S(=O)(=O)NC(=O)C3=CC=C(C=C3)N4CCC(CC4)[C@H](C5=CC=CC=C5C6=CC=C(C=C6)Cl)O)S(=O)(=O)C(F)(F)F)CCO [AZD4320] (first compound max 1 µM, 7x7, partner max 1 µM)
- combination Emax (BE2-M17 (Neuroblastoma)): 0.915
- combination Emax [1]: 0.739
- combination Emax [2]: 0.909
- combination Emax [3]: 0.634
- combination Emax [4]: 0.786
- combination Emax [5]: 1
